Laboratory results as given in patent publication US12728116B2, “Methods of treating multiple sclerosis” (Vanda Pharmaceuticals Inc., priority 2021, dated 2026).

Key:
[1] = tested on: adult subjects with relapsing MS; experiment: FSIQ-RMS weekly symptoms score, change from baseline to Week 108 (fatigue); assay type: in vivo, human; conditions: for FSIQ-RMS change: Improved (<−6.3), patients / FSIQ-RMS change: Stable (−6.3 < x < +6.3), patients / FSIQ-RMS change: Stable or Improved, patients / FSIQ-RMS change: Worsened (≥6.3), patients / FSIQ-RMS-S total score change: Improved (<−6.3), patients / FSIQ-RMS-S total score change: Stable (−6.3 < x < +6.3), patients / FSIQ-RMS-S total score change: Stable or Improved, patients / FSIQ-RMS-S total score change: Worsened (≥6.3), patients: Week 108; for Mean change from baseline to Week 108 in FSIQ-RMS weekly symptoms score (MMRM): ponesimod 20 mg, teriflunomide 14 mg, full analysis set, increase = worsening
Procedure: In some embodiments, the patient-reported outcome questionnaire is the symptom domain of the FSIQ-RMS. The FSIQ-RMS symptom domain (FSIQ-RMS-S) consists of seven items assessing fatigue-related symptoms with a recall period of 24 hours measured on an 11-point numeric rating scale; the standardized symptom domain score ranges from 0 to 100 with a higher score indicating greater fatigue. This domain (i.e., section 1 of the questionnaire) is completed on 7 consecutive days.
As used herein, the term “patient level” refers to individual or within patient level of change. As used herein, “clinically meaningful” refers to the practical importance of a treatment effect and whether it has a real genuine, palpable, noticeable effect on symptoms and/or daily life. When interpreting data from a Patient Reported Outcome (PRO), for example, it is helpful to define a level of change on the PRO score over a predetermined time period that should be interpreted as a treatment benefit. Various terms are used for this level of change, including meaningful change threshold (MCT). This threshold can be used to conduct a responder analysis where an individual patient is a responder if the level of change on the PRO score for that patient exceeds the MCT. The proportion of responders between treatment groups can be compared to evaluate treatment effect. For example, in certain embodiments disclosed herein, there is an analysis of the percentage of responders in the ponesimod and teriflunomide treatment groups using an MCT of −6.3 on the FSIQ-RMS weekly symptom score. The percentage of subjects in the stable or improved category is also calculated. […] Accordingly, evaluation of within patient changes using MCT and associated responder analyses are used to provide additional interpretation to a p-value derived from a statistical test
For the MS symptoms domain, the FSIQ-RMS asks about a patient's fatigue-related symptoms of relapsing MS over the past 24 hours while doing routine daily activities (e.g., housework, yard work, shopping, working, etc.) for Items 1-6 or while at rest (e.g., reading a book, watching TV, etc.) for Item 7. Patients are asked to select a response on a scale of 0 to 10 that best describes their experience and are asked to not skip any questions, with no answers being right or wrong. • Item 1—In the past 24 hours, while doing routine daily activities, how physically tired did you feel? See FIG. 31. • Item 2—In the past 24 hours, while doing routine daily activities, how mentally tired did you feel? See FIG. 32. • Item 3—In the past 24 hours, while doing routine daily activities, how physical weak did you feel? See FIG. 33. • Item 4—In the past 24 hours, how would you rate your energy while doing routine daily activities? See FIG. 34. • Item 5—In the past 24 hours, while doing routine daily activities, how worn out did you feel? See FIG. 35. • Item 6—In the past 24 hours, while doing routine daily activities, how sleepy did you feel? See FIG. 36. • Item 7—In the past 24 hours, how worn out did you feel while at rest? MS-Related Impacts—13 Items
Secondary efficacy variables and testing strategy: Four secondary efficacy endpoints were analyzed as per the statistical testing strategy outlined in FIG. 1. • Change from baseline to Week 108 in fatigue-related symptoms as measured by the symptoms domain of the FSIQ-RMS patient-reported outcome [Fatigue] • Cumulative number of combined unique active lesions from baseline to Week 108 on brain MRI [CUALs] • Time to first 12-week confirmed disability accumulation (CDA) from baseline to EOS on Expanded Disability Status Scale (EDSS) [12-week CDA] • Time to first 24-week CDA from baseline to EOS on EDSS [24-week CDA] […]

[2] = tested on: adult subjects with relapsing MS; experiment: 12-lead ECG heart rate and first-dose effects on Day 1; assay type: in vivo, human; conditions: for Mean heart rate change compared to pre-dose at 2-hours post dose / Subjects with asymptomatic post-dose HR≤40 bpm: Day 1; for Mean heart rate change compared to pre-dose at 2-hours post dose: 12-lead ECG, Safety Set; for Subjects with asymptomatic post-dose HR≤40 bpm: all with pre-treatment HR <55 bpm
Procedure: As per up-titration regimen, the dose of ponesimod on Day 1 is 2 mg.

[3] = Baseline EDSS <3.5 (title: ≤3.5)
[4] = baseline fatigue below the median
[5] = no prior DMT treatment within about two years
[6] = no prior DMT treatment within about two years, listed as ponesimod

Compound | FSIQ-RMS change: Improved (<−6.3), patients [1, 3] | FSIQ-RMS change: Stable (−6.3 < x < +6.3), patients [1, 3] | FSIQ-RMS change: Stable or Improved, patients [1, 3] | FSIQ-RMS change: Worsened (≥6.3), patients [1, 3] | FSIQ-RMS-S total score change: Improved (<−6.3), patients ([1]; Full Analysis Set) | FSIQ-RMS-S total score change: Stable (−6.3 < x < +6.3), patients ([1]; Full Analysis Set) | FSIQ-RMS-S total score change: Stable or Improved, patients ([1]; Full Analysis Set) | FSIQ-RMS-S total score change: Worsened (≥6.3), patients ([1]; Full Analysis Set) | FSIQ-RMS change: Improved (<−6.3), patients [1, 4] | FSIQ-RMS change: Stable (−6.3 < x < +6.3), patients [1, 4] | FSIQ-RMS change: Stable or Improved, patients [1, 4] | FSIQ-RMS change: Worsened (≥6.3), patients [1, 4] | FSIQ-RMS change: Improved (<−6.3), patients ([1]; no Gd+ T1 lesions at baseline) | FSIQ-RMS change: Stable (−6.3 < x < +6.3), patients ([1]; no Gd+ T1 lesions at baseline) | FSIQ-RMS change: Stable or Improved, patients ([1]; no Gd+ T1 lesions at baseline) | FSIQ-RMS change: Worsened (≥6.3), patients ([1]; no Gd+ T1 lesions at baseline) | FSIQ-RMS change: Improved (<−6.3), patients [1, 5] | FSIQ-RMS change: Stable (−6.3 < x < +6.3), patients [1, 5] | FSIQ-RMS change: Stable or Improved, patients [1, 5] | FSIQ-RMS change: Worsened (≥6.3), patients [1, 5] | also measured
CCC/N=C1\S/C(=C\c2ccc(OC[C@H](O)CO)c(Cl)c2)C(=O)N1c1ccccc1C [Ponesimod, (R)-5-[3-chloro-4-(2,3-dihydroxy-propoxy)-benz[Z]ylidene]-2-([Z]-propylimino)-3-o-tolyl-thiazolidin-4-one] | 30.6% | 40.8% | 71.4% | 28.6% | 30.5% | 38.4% | 68.9% | 31.1% | 19.1% | 45.2% | 64.4% | 35.6% | 30.0% | 37.4% | 67.5% | 32.5% | 31.4% | 44.0% | 75.4% | 24.6% | MS-fatigue (FSIQ-RMS) mean difference, change from baseline to week 108, ponesimod vs teriflunomide ([1]; EDSS≤3 subgroup): −4.31; FSIQ-RMS change: Stable or Improved, patients ([1]; baseline fatigue below the median, listed as ponesimod): ~65%; FSIQ-RMS change: Stable or Improved, patients ([1]; no Gd+ T1 lesions at baseline, listed as ponesimod): about 68%; FSIQ-RMS change: Improved (<−6.3), patients [1, 6]: 31.4%; FSIQ-RMS change: Stable or Improved, patients [1, 6]: about 75%; Mean difference in FSIQ-RMS change from baseline to Week 108, ponesimod vs teriflunomide ([1]; ponesimod 20 mg vs teriflunomide 14 mg, Full Analysis Set): −3.57; Mean change from baseline to Week 108 in FSIQ-RMS weekly symptoms score (MMRM) [1]: −0.01; 2nd or higher degree AV block ([2]; Day 1, first dose): No 2nd or higher degree AV block was observed; Subjects meeting discharge criteria at 4 hours post-dose ([2]; Day 1, first dose): ca. 99%; ECG HR effect: time of nadir post-dose ([2]; Day 1, ponesimod 2 mg): 2 h; Mean heart rate change compared to pre-dose at 2-hours post dose [2]: −8.7 bpm; Subjects with asymptomatic post-dose HR≤40 bpm [2]: 3
C/C(O)=C(\C#N)C(=O)Nc1ccc(C(F)(F)F)cc1 [Teriflunomide, reference compound] | 27.9% | 34.2% | 62.1% | 37.9% | 29.9% | 32.6% | 62.5% | 37.5% | 20.9% | 33.7% | 54.6% | 45.4% | 25.8% | 31.2% | 57.0% | 43.0% | 26.2% | 36.9% | 63.1% | 36.9% | FSIQ-RMS change: Stable or Improved, patients ([1]; baseline fatigue below the median, listed as teriflunomide): about 55%; FSIQ-RMS change: Stable or Improved, patients ([1]; no Gd+ T1 lesions at baseline, listed as teriflunomide): about 57%; Mean change from baseline to Week 108 in FSIQ-RMS weekly symptoms score (MMRM) [1]: 3.56; Mean heart rate change compared to pre-dose at 2-hours post dose [2]: −1.7 bpm; Subjects with asymptomatic post-dose HR≤40 bpm [2]: none
